Test results as given in the METLIN SMRT retention time set (Domingo-Almenara et al. 2019).

Assay: gradient 5% acetonitrile 3 min, to 50% in 2 min, to 85% in 15 min, held 3 min, 100 µL/min
Details: column: Zorbax Extend-C18 2.1 x 50 mm; eluents: water / acetonitrile, 0.1% formic acid
Procedure, shortened: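 Data were gathered over 3 months by HPLC coupled to a quadrupole time-of-flight mass spectrometer, operated in positive and negative ionization mode. Mixtures of ~100 pure standards ran on a Zorbax Extend-C18 column (2.1 × 50 mm, 1.8 μm) at 100 μL/min, with water and acetonitrile each containing 0.1% formic acid and dead and dwell volumes of 40 μL and 900 μL. Retention time was read from adduct peaks picked by computer and checked manually.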

Compound	RP-LC retention time [s]
Cc1ncoc1C(=O)N1CC(F)(F)C[C@H]1c1nc(C2CC2)no1	768
Cc1nn(CC(=O)NCCCN(C)C2CCCCC2)c(=O)c2nn(-c3ccccc3)c(C)c12	634
CC(NC(=O)c1ccco1)C(=O)NCc1nn(C(C)C)c2ccccc12 (configuration not stated)	712
CSc1ccccc1C(=O)N1CCN(C(=O)C2CC2c2ccc3c(c2)OCO3)CC1 (configuration not stated)	754
O=C(CCc1conc1-c1ccc(F)cc1)NC1CCN(Cc2ccccc2)CC1	657
Cc1ccc2c(c1)N(Cc1ccc(F)cc1)N=C(C(=O)N1CCOCC1)S2(=O)=O	839
CC1(C(=O)NCc2ccccc2)Cn2cnc(C(=O)NC3CC3)c2C(=O)N1C1CC1 (configuration not stated)	660
Cc1ccc(Cn2cc(-c3noc(-c4ccc(N(C)C)cc4)n3)nn2)cc1	1070
CC(C)OCCCNC(=O)c1ccc2c(c1)N(C)C(=O)C1CCCCN21 (configuration not stated)	770
CCCn1cc(S(=O)(=O)Nc2ccc(C#N)cc2)c2cccnc21	844
CSc1ccccc1NC(=O)C(=O)NCC1CCN(C(=O)Oc2ccccc2)CC1	998
COC(=O)c1c(-c2ccc(Cl)cc2)noc1NCCN1CCN(C)CC1	660
CCCNC(=O)C1CCCN(c2nc3ncn(CC(=O)Nc4ccc(F)c(F)c4)c(=O)c3s2)C1 (configuration not stated)	708
O=C(Cn1cnc2c(sc3nc(-c4ccccc4)ccc32)c1=O)NCc1ccc(F)cc1	982
CN(C)CCNC(=O)C1CCc2sc(C(=O)N3CCOCC3)cc2C1 (configuration not stated)	551
Cc1ccc(-c2noc(-c3cccc(S(=O)(=O)Nc4cccc(C#N)c4)c3)n2)cc1	1160
COc1ccc(-c2noc(C3(NC(=O)c4cc(C)cc(C)c4)CCCCC3)n2)cc1	1250
CC(=O)c1ccc(S(=O)(=O)NCCC2CCN(C(=O)c3ccc(F)cc3)CC2)cc1	795
O=C(C1CCN(S(=O)(=O)Cc2ccc(F)cc2)CC1)N1CCCC1	735
Cc1ccccc1-n1c(=O)c2sccc2n(Cc2nc(-c3ccc(C(C)(C)C)cc3)no2)c1=O	1080
O=C(NCC1CCS(=O)(=O)C1)c1ccc2nsnc2c1 (configuration not stated)	609
Cc1ccc(C(=O)CSc2ccc(NC(=O)C(C)C)nn2)c(C)c1	890

Compound	RP-LC retention time [s]
COc1ccccc1-c1noc(CCn2nc(-c3ccc4c(c3)OCO4)ccc2=O)n1	802
COc1ccc(-c2csc3c(=O)n(Cc4ccccn4)cnc23)cc1	815
CN(C)c1cccc(C(=O)NC2CCN(c3cc(-c4ccccc4)[nH]n3)C2)c1 (configuration not stated)	664
CCCc1ccc(S(=O)(=O)N2CCC(n3c(-c4ccoc4)nc4cccnc43)C2)cc1 (configuration not stated)	1020
COc1ccc(NC(=O)CSc2cc(N3CCN(c4ccccc4OC)CC3)ncn2)cc1OC	814
O=C(c1nnc(-c2ccc(S(=O)(=O)N3CCOCC3)cc2)o1)N1CCN(C2CCCCC2)CC1	647
Cc1cc(C)n(CCC(=O)N[C@@H]2CN(S(C)(=O)=O)C[C@H]2CN(C)C)n1	564
Cc1ccc(S(=O)(=O)N2CCCC2c2nc(-c3ccccc3C)no2)cc1Cl (configuration not stated)	1290
Cc1cc(C)cc(-c2nc(-c3cccc(-c4ccnn4C)c3)no2)c1	1340
Cc1ccc(CNC(=O)Cn2nc(C)c3nn(-c4ccccc4)c(-n4cccc4)c3c2=O)o1	946
Cc1cc(Br)ccc1NC(=O)CCn1c(=O)oc2ccccc21	823
COCCc1noc(C2Cc3ccccc3N2C(=O)Nc2ccc(C)c(C)c2)n1 (configuration not stated)	1060
CS(=O)(=O)N1CCN(Cc2cc3nc(-c4cccc5[nH]ncc45)nc(N4CCOCC4)c3s2)CC1	706
O=C(NCc1ccnc(N2CCSCC2)c1)Nc1ccccc1Cl	643
CCc1ccc(NC(=O)C2CCN(S(=O)(=O)c3ccc4c(c3)S(=O)(=O)N=CN4)CC2)cc1	806
Cc1noc(C)c1CC(=O)NCCc1noc(C2CC2)n1	628
CSc1ccc(-c2nc3nc(C)cc(C)n3c2Nc2ccc(C(C)C)cc2)cc1	943
O=C1C[C@@H](c2ccc(O)c(O)c2)Oc2cc(O[C@H]3O[C@@H](CO)[C@H](O)[C@@H](O)[C@@H]3O)cc(O)c21	723
Cn1nc(-c2nc(-c3cccc(F)c3)no2)c2c1CCN(C(=O)C1CCCO1)C2 (configuration not stated)	789
CCN1C(=O)c2cc(S(=O)(=O)Nc3ccc(C)c(C)c3)ccc2Oc2cccnc21	986
CCn1ccc(NC(=O)c2ccccc2)n1	694
CC(C)c1noc(-c2cc(=O)n(CC(=O)Nc3ccc(F)cc3)c3ccccc23)n1	995

Compound	RP-LC retention time [s]
Cc1ccc(CNC(=O)C2CCN(S(=O)(=O)c3ccc4[nH]c(=O)ccc4c3)CC2)cc1	738
O=C(C1=CN(c2ccc(F)c(F)c2)c2ccccc2S1(=O)=O)N1CCOCC1	751
Cc1nc(N2CCN(c3ccccn3)CC2)nc2c1C(=O)CC(c1ccccc1F)C2 (configuration not stated)	735
O=C(Nc1ccc(F)cc1)C1CCN(S(=O)(=O)c2cc(-c3noc(C4CC4)n3)cs2)CC1	1010
COC(=O)C1=CN(c2cccc(F)c2)c2cc(F)ccc2S1(=O)=O	869
COc1ccccc1N1CCN(C(=O)CCc2c(C)n(C)c3nc(-c4ccccc4)nn3c2=O)CC1	761
O=C(c1ccc2cc[nH]c2c1)N1CCN(C(=O)c2nnn3c2COC(c2ccccc2)C3)CC1 (configuration not stated)	773
CC(=O)N1CCCC(CCc2nnc(C3CCOCC3)o2)C1 (configuration not stated)	608
COc1ccc2c(c1)C1(CCN(C(=O)c3ccccc3Br)C1)C(=O)N2 (configuration not stated)	750
CC1CCCC(C)N1C(=O)CSc1nnc(-c2ccc3c(c2)OCCCO3)n1C (configuration not stated)	780
O=S(=O)(c1ccc2c(c1)-c1oncc1CO2)N1CCN(c2ccccn2)CC1	647
COc1ccc(OC)c(NC(=O)Nc2c(-c3ccccc3)nc3ccccn23)c1	668
CC(C)=C1SC(=O)N(CC(=O)Nc2ccc(S(N)(=O)=O)cc2)C1=O	672
O=C(Cn1c(N2CCCCC2)nc2ccccc2c1=O)N1CCN(c2ccccc2)CC1	976
O=C(NCC1CC1)[C@@H]1OCCN(C2CC2)[C@H]1c1ccccc1	612
Cc1ccccc1-c1nc(CN2CCN(C(=O)NC3CCCC3)CC2)c(C)o1	672
CCOC(=O)c1c(C)[nH]c2cc(Br)c(O)cc12	768
CSc1ccc(CNC(=O)c2c(C)sc3ccn(C)c(=O)c23)cc1	784
O=C(Cc1csc2nc(-c3ccccc3)cn12)Nc1ccccc1F	764
Cc1ccc(-c2noc(-c3sccc3NC(=O)C3(c4ccccc4)CC3)n2)cc1	828
Cc1ccc(NS(=O)(=O)c2cn(CC(C)C)c3ncccc23)cc1	986
Cc1c2c(nn1-c1ccc(SCc3cccc(F)c3)nn1)CCC2	1280

Compound	RP-LC retention time [s]
O=C(N[C@@H]1CN(c2ccncn2)C[C@H]1CO)c1ccc2c(c1)OCO2	578
O=S(=O)(c1ccccc1Cl)N1CC(COc2ccncc2)C2(CCOCC2)C1 (configuration not stated)	574
c1ccc(CNc2nc(NCc3ccccc3)c3ccccc3n2)cc1	796
CC1CCN(c2cc(-n3cnc(C(=O)Nc4ccc(N(C)C)cc4)c3)ncn2)CC1	751
CC(C)c1ccc(-n2ncc3c(=O)n(Cc4nc(-c5ccc(Cl)cc5)no4)cnc32)cc1	1320
O=C(NCCN1CCOCC1)c1nc2ccccn2c1-c1ccc(Cl)cc1	647
COCCNC(=O)Cn1c(=O)n(-c2ccccc2)c2ncccc21	634
COCCNC(=O)c1nc(Nc2ccc(C)cc2)c2ccccc2n1	698
COc1ccc(Cl)cc1NC(=O)C(C)Oc1cc(C(F)(F)F)c2c(C)nn(C)c2n1 (configuration not stated)	1200
COc1ccc(C(O)CN2CCN(c3ncccn3)CC2)cc1OC (configuration not stated)	566
COc1ccc(-c2nc(-c3cn(-c4cccc(Cl)c4)nn3)no2)c(OC)c1	1070
CCSc1nc2ccc(NS(=O)(=O)c3ccc(F)c(C)c3)cc2s1	1060
CN(C)CCNC(=O)C1CCN(c2ccc(-c3cccs3)nn2)CC1	571
Cc1sc(C)c(S(=O)(=O)NC2CC2)c1-c1cc(C(F)(F)F)on1	1070
Cc1noc(C)c1CNC(=O)c1ccc(F)cc1Cl	731
Fc1ccc(OCc2nn3c(-c4cccnc4)nnc3s2)cc1	781
Cc1cccc(-c2noc(Cn3c(=O)n(Cc4ccccc4Cl)c(=O)c4sccc43)n2)c1	1150
COc1cc(-c2noc(C3CC(=O)N(c4ccc(C)cc4C)C3)n2)cc(OC)c1OC (configuration not stated)	938
O=C(c1cc(F)ccc1Cl)N1CCc2nc(-c3ccc(Cl)cc3)ncc2C1	1130
Cc1ccc(-c2cc3n(n2)CCCN(C(=O)c2cnccn2)C3)cc1	766
COCc1noc(CC2CCOC3(CCN(Cc4ccc5c(c4)CCO5)CC3)C2)n1 (configuration not stated)	646
